# Experimental data reported in patent publication US20250387409A1, “3-BETA-HYDROXY-3-ALPHA-ETHYL STEROIDS FOR MODULATION OF THE ALPHA-3 SUBTYPE OF THE GABAA RECEPTOR” (priority 2021, published 2025).
# pIC50: −log10 of the molar value.
# Legend:
# [1] = biological target: T1, human α3-β3-γ2L GABAA-receptor subtype (Homo sapiens, UniProt P28472+P34903); assay: Patch clamp (Dynaflow) GABA-mediated current response, HEK-293 cells, α3β3γ2L; assay type: cell-based; settings: for effect on GABA (in words) / effect on GABA response: 1 μM steroid; for activation of the receptor in the absence of GABA / Imax on 100 μM GABA mediated current response: 0.01-10 μM steroid; for activation of the receptor in the absence of GABA: no GABA, data not shown; for Imax on 100 μM GABA mediated current response: from best fit curve
# T1 construct: expressed in transfected cells
# Excerpt: (§1) In these tests the protocol was optimized to be like the physiological conditions in the synaptic cleft.
# (§2) Preparation of cell lines: HEK-293 cells permanently transfected with the human α1-β2-γ2L, α2-β3-γ2S, α3-ββ3-γ2L, α4-β3-δ or α5-β3-γ2L GABAA-receptor subtypes were used. The cell lines permanently expressing a functional human GABAA-receptor was made in following steps. The human GABAA-receptor subunits e.g. α1 (308-1727 NM_000806), β2 (214-1679 NM_000813), γ2L (290-1785 NM_198904), α2, β3, γ2S, α3, α4, δ and α5 including introduced Kozac sequences just before the start codons were subcloned into mammalian expression vectors containing Geneticin, Hygromycin B, and Zeocin resistance, respectively. A HEK-293 cell line stably expressing the three GABAA-receptor subunits was produced by transfection of the subunits, one at a time. The transfection was followed by selection with the appropriate antibiotics, cell separation with the use of subunit specific antibodies and production of single cell colonies. Produced cell lines were analysed with immunocytochemistry for the three GABAA-receptor subunits, followed by selection of a suitable cell line showing, for the GABAA-receptor normal and good reactivity in a patch-clamp analysis (see below) towards GABA and the GAMS THDOC.
# (§3) Cell culture: HEK-293 cells, permanently transfected with human α1-β2-γ2L, α2-β3-γ2S, α3-β3-γ2L, α4-β3-δ and α5-β3-γ2L GABAA-receptor subtypes, were seeded at a density of 3×10^4/25 cm^2 in cell binding culture flask. The transfected cells were used for patch-clamp experiments 3 days after seeding. When using the cells for patch-clamp experiments the cells were washed twice with oxygen-bubbled EC-solution (see below). About 5 mL EC was then added and the cells were kept in the incubator for about 15 minutes. After 15 minutes the cells came loose from the bottom of the flask and were separated by carefully sucking couple of times with a Pasteur pipette.
# (§4) Dynaflow™ system: Dynaflow™ system with resolve chips was used for all patch-clamp experiments. The resolve chips is made of non-sticky materials. The channel width is 150 μm and the height 50 μm. The well volume is 280 μL. Run time at the flow rate of 26 μL/min is […]. The pump settings were as follow: Omnifix 2 ml syringe with inner diameter of 9.65 mm was used. The syringe pump flow rate of chip was 26 μL/min.
# (§5) Steroids and GABA: GABA was dissolved in EC-solution by ultrasound for about 40 minutes to the concentration of 10 mM in room temperature. All steroids were dissolved to the concentration of 6 mM in dimethyl sulfoxide (DMSO). The DMSO concentration was 0.1% in all end-solutions, including the wash solution (EC) and the solution with GABA alone. End-solutions are the solutions added into the wells of the chip.
# (§6) Electrophysiology: Patch electrodes were pulled from 1.5 mm O.D., 0.86 mm I.D. borosilicate capillary glass without filament. […] The intracellular solution (IC) comprised of (in mM): 140 Cs-gluconate, 3.0 NaCl, 1.2 MgCl2, 1.0 EGTA, 10 HEPES. pH was adjusted to 7.2 with CsOH. The extracellular (EC) solution used during recordings contained (in mM): 137 NaCl, 5.0 KCl, 1.0 CaCl2), 1.2 MgCl2, 10 HEPES, 10 glucose. pH was adjusted with NaOH to 7.4. After compensating for the liquid junction potential, a steady holding potential of −17 mV was used in all experiments. In physiological conditions the HEK-293 has a resting potential at −40 mV and a low concentration of chloride ions inside the cell. By using the holding potential of-17 mV and the intracellular solution with low chloride ion concentration the chloride ions flux into the cell when the receptors are activated. All experiments were performed at room temperature (21 to 23° C.). The following standard protocol was used for all experiments.
# (§7) GABA applications: By using the Dynaflow equipment it is possible to study transfected HEK-293 during almost physiological conditions.
# [2] = biological target: T2, human α4-β3-δ GABAA-receptor subtype (Homo sapiens, UniProt P28472+P48169); assay: Patch clamp (Dynaflow) GABA-mediated current response, HEK-293 cells, α4β3δ; assay type: cell-based; settings: 1 μM steroid
# T2 construct: expressed in transfected cells
# Excerpt: as §1, §2, §3, §4
# as §5, with “chip. […]” for “chip.”
# GABAA-receptors = assay: Patch clamp, steroid alone without GABA present; assay type: cell-based, human
# Excerpt: as §1
# as §2, with “THDOC. […]” for “THDOC.”
# [3] = biological target: T3, human α1-β2-γ2L GABAA-receptor subtype (Homo sapiens, UniProt P14867+P47870); assay: Patch clamp (Dynaflow) GABA-mediated current response, HEK-293 cells, α1β2γ2L; assay type: cell-based; settings: 1 μM steroid, α1β2γ2L; for effect on GABA response: mean ± SEM, + enhancement, − reduction
# T3 construct: expressed in transfected cells
# Excerpt: as §1, §2, §3, §4, §5
# as §6, with “By using the holding potential of-17 mV and the intracellular solution with low chloride ion concentration the chloride ions flux into the cell when the receptors are activated. All experiments were performed at room temperature (21 to 23° C.). The following standard protocol was used for all experiments.” left out
# [4] = biological target: T4, human α2-β3-γ2S GABAA-receptor subtype (Homo sapiens, UniProt P28472+P47869); assay: Patch clamp (Dynaflow) GABA-mediated current response, HEK-293 cells, α2β3γ2S; assay type: cell-based; settings: 1 μM steroid
# T4 construct: expressed in transfected cells
# Excerpt: as §1, §2, §3, §4
# as §5, with “chip. […]” for “chip.”
# [5] = biological target: T5, human GABAA-receptor subtype α3β3γ2L (Homo sapiens, UniProt P28472+P34903); assay: Patch clamp (Dynaflow) THDOC enhancement of GABA response, HEK-293 cells, α3β3γ2L; assay type: cell-based; settings: for reduction of THDOC-enhanced GABA effect, Mean ± SEM %: 100 nM THDOC, 100 μM GABA, GABA response subtracted
# T5 construct: expressed in transfected cells
# Excerpt: as §1, §2, §3, §4, §5, §6, §7
# [6] = biological target: T6, human α5-β3-γ2L GABAA-receptor subtype (Homo sapiens, UniProt P28472+P31644); assay: Patch clamp (Dynaflow) GABA-mediated current response, HEK-293 cells, α5β3γ2L; assay type: cell-based; settings: 1 μM steroid
# T6 construct: expressed in transfected cells
# Excerpt: as §1, §2, §3, §4
# as §5, with “chip. […]” for “chip.”
# T3 sequence (P14867 28-456): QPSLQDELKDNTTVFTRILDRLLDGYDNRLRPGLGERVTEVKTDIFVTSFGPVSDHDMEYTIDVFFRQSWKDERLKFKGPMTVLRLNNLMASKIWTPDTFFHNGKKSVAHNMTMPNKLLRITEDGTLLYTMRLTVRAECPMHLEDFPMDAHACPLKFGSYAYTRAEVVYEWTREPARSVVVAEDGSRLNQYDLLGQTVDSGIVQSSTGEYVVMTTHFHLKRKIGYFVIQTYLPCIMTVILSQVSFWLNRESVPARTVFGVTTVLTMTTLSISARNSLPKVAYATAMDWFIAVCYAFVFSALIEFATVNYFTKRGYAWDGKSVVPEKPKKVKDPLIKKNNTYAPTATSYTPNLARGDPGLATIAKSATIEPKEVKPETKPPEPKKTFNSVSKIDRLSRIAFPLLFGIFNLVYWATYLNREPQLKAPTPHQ
# T3 sequence (P47870 26-474 isoform P47870-1 limits assumed): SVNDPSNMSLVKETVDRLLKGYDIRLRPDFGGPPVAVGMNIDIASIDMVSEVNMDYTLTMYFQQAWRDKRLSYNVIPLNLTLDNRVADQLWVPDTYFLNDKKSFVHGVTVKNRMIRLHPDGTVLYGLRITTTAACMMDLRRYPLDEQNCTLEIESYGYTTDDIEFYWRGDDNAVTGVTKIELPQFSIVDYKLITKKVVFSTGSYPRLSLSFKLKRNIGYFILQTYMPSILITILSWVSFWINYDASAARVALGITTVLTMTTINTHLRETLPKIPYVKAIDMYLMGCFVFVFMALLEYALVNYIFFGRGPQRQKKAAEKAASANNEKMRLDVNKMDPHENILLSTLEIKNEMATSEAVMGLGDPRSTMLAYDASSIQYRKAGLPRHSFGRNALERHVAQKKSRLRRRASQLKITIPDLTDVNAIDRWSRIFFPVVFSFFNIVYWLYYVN
# T3 sequence (P18507 40-475 partner): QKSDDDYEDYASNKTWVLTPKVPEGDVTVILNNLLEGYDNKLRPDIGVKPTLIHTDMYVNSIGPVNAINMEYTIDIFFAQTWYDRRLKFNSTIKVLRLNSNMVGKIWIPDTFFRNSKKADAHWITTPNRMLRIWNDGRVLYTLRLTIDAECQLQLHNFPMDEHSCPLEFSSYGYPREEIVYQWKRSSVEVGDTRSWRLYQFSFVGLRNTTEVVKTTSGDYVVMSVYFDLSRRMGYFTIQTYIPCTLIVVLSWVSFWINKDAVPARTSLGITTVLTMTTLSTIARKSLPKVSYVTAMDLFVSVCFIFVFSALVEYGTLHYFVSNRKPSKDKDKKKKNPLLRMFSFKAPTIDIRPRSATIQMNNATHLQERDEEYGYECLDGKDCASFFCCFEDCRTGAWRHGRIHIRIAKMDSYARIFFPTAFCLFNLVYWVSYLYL
# T1 sequence (P34903 29-492): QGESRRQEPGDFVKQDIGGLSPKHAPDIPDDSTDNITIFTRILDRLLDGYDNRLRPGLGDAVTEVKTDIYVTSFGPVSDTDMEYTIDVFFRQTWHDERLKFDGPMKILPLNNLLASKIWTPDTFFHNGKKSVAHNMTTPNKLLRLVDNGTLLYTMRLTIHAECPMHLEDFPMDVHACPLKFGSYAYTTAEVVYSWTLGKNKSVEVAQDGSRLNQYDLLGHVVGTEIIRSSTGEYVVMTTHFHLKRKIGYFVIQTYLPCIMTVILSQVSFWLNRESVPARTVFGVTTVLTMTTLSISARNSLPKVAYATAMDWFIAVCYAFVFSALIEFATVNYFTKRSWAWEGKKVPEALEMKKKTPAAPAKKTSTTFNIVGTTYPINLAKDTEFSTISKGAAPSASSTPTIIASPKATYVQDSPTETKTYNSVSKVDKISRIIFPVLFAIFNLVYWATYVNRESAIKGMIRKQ
# T1 sequence (P28472 26-473): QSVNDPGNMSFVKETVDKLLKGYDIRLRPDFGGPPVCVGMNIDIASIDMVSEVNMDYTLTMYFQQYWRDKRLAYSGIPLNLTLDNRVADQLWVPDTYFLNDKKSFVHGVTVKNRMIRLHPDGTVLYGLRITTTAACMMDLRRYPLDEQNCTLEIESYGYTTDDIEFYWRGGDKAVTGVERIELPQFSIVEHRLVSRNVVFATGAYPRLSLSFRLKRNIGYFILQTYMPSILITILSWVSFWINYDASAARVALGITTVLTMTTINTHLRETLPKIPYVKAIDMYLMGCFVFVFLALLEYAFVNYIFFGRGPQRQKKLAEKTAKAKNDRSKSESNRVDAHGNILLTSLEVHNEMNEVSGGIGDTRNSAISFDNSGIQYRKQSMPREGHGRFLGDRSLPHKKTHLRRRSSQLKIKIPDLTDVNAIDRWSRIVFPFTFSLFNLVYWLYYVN
# T1 sequence (P18507 40-475 partner): as the sequence (P18507 40-475 partner) above
# T5 sequence (P34903 29-492): as the sequence (P34903 29-492) above
# T5 sequence (P28472 26-473): as the sequence (P28472 26-473) above
# T5 sequence (P18507 40-475 partner): as the sequence (P18507 40-475 partner) above
# T2 sequence (P48169 36-554): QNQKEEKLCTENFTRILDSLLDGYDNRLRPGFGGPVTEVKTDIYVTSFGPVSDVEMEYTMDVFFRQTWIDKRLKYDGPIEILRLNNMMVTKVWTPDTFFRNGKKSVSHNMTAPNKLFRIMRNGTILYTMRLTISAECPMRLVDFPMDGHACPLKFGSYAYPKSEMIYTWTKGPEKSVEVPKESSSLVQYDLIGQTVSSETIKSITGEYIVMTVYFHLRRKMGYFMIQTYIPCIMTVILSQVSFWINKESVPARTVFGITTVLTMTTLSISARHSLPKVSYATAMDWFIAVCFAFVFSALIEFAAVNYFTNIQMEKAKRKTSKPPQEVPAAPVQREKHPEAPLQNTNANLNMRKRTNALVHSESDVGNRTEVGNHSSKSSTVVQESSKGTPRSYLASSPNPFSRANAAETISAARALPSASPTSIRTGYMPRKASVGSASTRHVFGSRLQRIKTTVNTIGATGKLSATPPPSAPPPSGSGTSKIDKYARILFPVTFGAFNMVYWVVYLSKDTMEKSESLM
# T2 sequence (P28472 26-473): as the sequence (P28472 26-473) above
# T2 sequence (O14764 25-452 partner): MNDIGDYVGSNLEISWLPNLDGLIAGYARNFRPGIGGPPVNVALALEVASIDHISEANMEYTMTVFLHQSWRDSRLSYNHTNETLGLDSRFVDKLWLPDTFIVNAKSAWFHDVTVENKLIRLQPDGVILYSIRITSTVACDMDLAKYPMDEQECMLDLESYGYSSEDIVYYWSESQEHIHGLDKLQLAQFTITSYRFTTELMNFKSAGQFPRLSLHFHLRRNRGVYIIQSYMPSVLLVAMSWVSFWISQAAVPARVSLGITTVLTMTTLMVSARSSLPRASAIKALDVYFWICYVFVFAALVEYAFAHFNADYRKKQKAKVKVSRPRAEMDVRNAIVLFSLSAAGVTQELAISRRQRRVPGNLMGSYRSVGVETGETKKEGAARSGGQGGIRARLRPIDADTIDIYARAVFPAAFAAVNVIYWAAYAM
# T4 sequence (P47869 29-451): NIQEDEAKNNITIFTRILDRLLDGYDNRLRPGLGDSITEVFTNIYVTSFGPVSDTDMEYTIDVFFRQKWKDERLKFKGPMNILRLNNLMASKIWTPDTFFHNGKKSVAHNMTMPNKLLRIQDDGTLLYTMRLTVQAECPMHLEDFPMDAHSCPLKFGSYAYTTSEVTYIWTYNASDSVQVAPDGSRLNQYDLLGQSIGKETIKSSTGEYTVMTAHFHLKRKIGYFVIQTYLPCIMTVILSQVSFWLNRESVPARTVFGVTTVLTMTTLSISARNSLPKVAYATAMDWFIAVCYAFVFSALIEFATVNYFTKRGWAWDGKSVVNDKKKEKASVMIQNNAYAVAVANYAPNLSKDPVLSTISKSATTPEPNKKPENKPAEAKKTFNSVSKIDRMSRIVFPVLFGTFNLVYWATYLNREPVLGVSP
# T4 sequence (P28472 26-473): as the sequence (P28472 26-473) above
# T4 sequence (P18507 40-467 isoform P18507-1 partner limits assumed): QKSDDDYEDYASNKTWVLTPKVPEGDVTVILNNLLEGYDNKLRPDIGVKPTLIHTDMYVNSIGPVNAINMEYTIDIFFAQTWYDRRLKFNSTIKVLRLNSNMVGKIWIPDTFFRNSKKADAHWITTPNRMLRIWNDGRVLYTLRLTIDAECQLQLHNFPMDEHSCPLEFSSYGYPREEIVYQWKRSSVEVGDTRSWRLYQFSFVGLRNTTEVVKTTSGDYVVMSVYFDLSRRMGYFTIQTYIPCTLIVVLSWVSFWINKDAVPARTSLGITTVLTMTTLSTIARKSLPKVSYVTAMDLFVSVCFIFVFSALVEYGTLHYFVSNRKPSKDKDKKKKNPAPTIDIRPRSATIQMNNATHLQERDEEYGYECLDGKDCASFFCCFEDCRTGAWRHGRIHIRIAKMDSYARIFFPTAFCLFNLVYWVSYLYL
# T6 sequence (P31644 32-462): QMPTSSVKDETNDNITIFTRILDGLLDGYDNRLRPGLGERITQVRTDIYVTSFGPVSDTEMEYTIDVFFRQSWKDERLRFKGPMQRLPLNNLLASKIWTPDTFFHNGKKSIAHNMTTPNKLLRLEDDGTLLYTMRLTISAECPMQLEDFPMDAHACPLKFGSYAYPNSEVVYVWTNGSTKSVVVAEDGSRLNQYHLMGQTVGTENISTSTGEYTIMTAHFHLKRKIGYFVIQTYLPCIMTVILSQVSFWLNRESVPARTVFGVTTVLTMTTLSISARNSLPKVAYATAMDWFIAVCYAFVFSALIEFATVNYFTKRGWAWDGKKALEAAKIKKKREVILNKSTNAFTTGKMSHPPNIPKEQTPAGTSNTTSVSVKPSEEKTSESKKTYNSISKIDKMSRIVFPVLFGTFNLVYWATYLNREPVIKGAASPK
# T6 sequence (P28472 26-473): as the sequence (P28472 26-473) above
# T6 sequence (P18507 40-475 partner): as the sequence (P18507 40-475 partner) above
SMILES,pIC50 [1],effect on GABA (in words) ([1]; α3β3γ2L),effect on GABA response ([1]; α3β3γ2L),activation of the receptor in the absence of GABA [1],Imax on 100 μM GABA mediated current response ([1]; α3β3γ2L),"effect on 100 μM GABA response, Mean ± SEM % ([1]; steroid conc. 0.01 μM, α3β3γ2L)","effect on 100 μM GABA response, Mean ± SEM % ([1]; steroid conc. 0.03 μM, α3β3γ2L)","effect on 100 μM GABA response, Mean ± SEM % ([1]; steroid conc. 0.1 μM, α3β3γ2L)","effect on 100 μM GABA response, Mean ± SEM % ([1]; steroid conc. 0.3 μM, α3β3γ2L)","effect on 100 μM GABA response, Mean ± SEM % ([1]; steroid conc. 1 μM, α3β3γ2L)","effect on 100 μM GABA response, Mean ± SEM % ([1]; steroid conc. 3 μM, α3β3γ2L)","effect on 100 μM GABA response, Mean ± SEM % ([1]; steroid conc. 10 μM, α3β3γ2L)",effect on GABA (in words) [2],effect on GABA response [2],effect on the GABAA-receptors alone without GABA present (GABAA-receptors),effect on GABA (in words) [3],effect on GABA response [3],effect on GABA (in words) [4],effect on GABA response [4],"reduction of THDOC-enhanced GABA effect, Mean ± SEM % ([5]; steroid conc. 0.03 μM)",also measured
CC[C@]1(O)CC[C@@]2(C)[C@@H](CC[C@@H]3[C@@H]2CC[C@]2(C)[C@@H](C(C)=O)CC[C@@H]32)C1 [3α-ethyl-3β-hydroxy-5α-pregnan-20-one],5.77,antagonizing effect,−8.5 ± 1.9%,did activate the receptor in the absence of GABA,−47%,+3.7 ± 2.4%,+9.1 ± 4.4%,+1.2 ± 4.2%,+15 ± 4.7%,−8.1 ± 2.7%,−32 ± 4.0%,−46 ± 6.8%,no significant antagonistic or agonistic effect,+6.5 ± 2.5%,no effect,agonistic enhancing effect,+6.0 ± 2.0%,no significant antagonistic or agonistic effect,+0.6 ± 2.3%,+19 ± 7.4%,"significant reducing effect on 100 μM GABA response ([1]; at 3 μM, α3β3γ2L): more than 30%; pIC50 [5]: 6.40; block of the THDOC enhancement ([5]; 3 μM steroid): completely block the THDOC enhancement; effect on THDOC's autonomic opening of the α3β3γ2L GABAA-receptor ([5]; in the range of the vehicle): slight agonistic effect; reduction of THDOC-enhanced GABA effect, Mean ± SEM % ([5]; steroid conc. 0.1 μM): −7.7 ± 12%; reduction of THDOC-enhanced GABA effect, Mean ± SEM % ([5]; steroid conc. 0.3 μM): −34 ± 6.7%; reduction of THDOC-enhanced GABA effect, Mean ± SEM % ([5]; steroid conc. 1 μM): −78 ± 8.8%; reduction of THDOC-enhanced GABA effect, Mean ± SEM % ([5]; steroid conc. 3 μM): −141 ± 15%; concentrations at which antagonist against THDOC enhancement of GABA ([5]; α3β3γ2L): above 300 nM; effect on GABA (in words) [6]: no significant antagonistic or agonistic effect; effect on GABA response [6]: +3.2 ± 2.6%"
CC[C@]1(O)CC[C@@]2(C)[C@@H](CC[C@@H]3[C@@H]2CC[C@]2(C)C(=O)CC[C@@H]32)C1 [3α-ethyl-3β-hydroxy-5α-androstan-17-one],6.05,significant antagonistic effect,−38 ± 2.4%,did activate the receptor in the absence of GABA,−77%,+6.6 ± 2.2%,−1.6 ± 0.7%,+4.4 ± 3.0%,−11 ± 0.7%,−39 ± 3.1%,−67 ± 3.0%,−75 ± 3.0%,significant antagonistic effect,−12 ± 2.3%,no effect,significant antagonistic effect,−9.3 ± 1.3%,significant antagonistic effect,−29 ± 1.3%,−4.4 ± 8.5%,"significant reducing effect on 100 μM GABA response ([1]; at 0.3 μM, α3β3γ2L): more than 10%; concentration at which antagonistic effect against GABAs effect is seen ([1]; α3β3γ2L): ≥ 0.3 µM; reduction of THDOC-enhanced GABA effect, Mean ± SEM % ([5]; steroid conc. 0.1 μM): −35 ± 8.8%; reduction of THDOC-enhanced GABA effect, Mean ± SEM % ([5]; steroid conc. 0.3 μM): −72 ± 8.3%; reduction of THDOC-enhanced GABA effect, Mean ± SEM % ([5]; steroid conc. 1 μM): −120 ± 5.6%; reduction of THDOC-enhanced GABA effect, Mean ± SEM % ([5]; steroid conc. 3 μM): −202 ± 13%; concentration at which antagonistic effect on THDOC enhancement of GABA is seen ([5]; α3β3γ2L): ≥ 0.1 µM; effect on GABA (in words) [6]: significant antagonistic effect; effect on GABA response [6]: −38 ± 2.0%"
